Results reported in article PMC10616469, “Pharmacokinetics and tissue distribution of four major bioactive components of Cynanchum auriculatum extract: a UPLC–MS/MS study in normal and functional dyspepsia rats” (Frontiers in Pharmacology, 2023).
Like-named read-outs stand apart in the source and are kept apart here.

Columns and labels:
[1] = PK study: plasma pharmacokinetics after oral administration of CA extract in normal and FD rats (UPLC-MS/MS); type: in vivo; details: Sprague-Dawley, rat, oral CA extract (0.10 g/mL solution, 10 mL/kg); for AUC(0-inf) / AUC(0-t) / CL/F / Cmax / half-life: n = 6; for Tmax: n = 6, read-out: Tmax; for Vd/F: n = 6, read-out: Vz/F
Description: For PK experiments, an appropriate amount of the CA extract was weighed to prepare a 0.10 g/mL solution using physiological saline. Briefly, 12 SD rats were randomly assigned to normal and FD groups and were orally administered the prepared CA sample (10 mL/kg body weight). For assessment, 0.3 mL of blood was collected into heparinized tubes via the caudal vein before dosing and at 2, 5, 10, 15, 20, 30, and 45 min, and 1, 2, 4, 8, 12, 24, and 48 h after administration. Blood samples were then immediately centrifuged at 4,500 rpm for 15 min, and the obtained plasma samples were stored at −20°C until determination.
The PK parameters were analyzed using the non–compartment analysis using the WinNonLin 8.2 software (Phoenix, United States). All the data were expressed as mean ± standard deviation (SD). The normal and FD groups were compared using independent samples t–test in SPSS 22.0. Results with p values < 0.05 were considered statistically significant.

[2] = Stability of the four compounds in tissue homogenate samples (QC samples); details: mean ± s, n = 5
Description: (§1) Additionally, stomach and small intestinal tissues were diluted three times to obtain a tissue homogenate. Then, 300 μL of this tissue homogenate was mixed with 30 μL 1% formic acid-water, 20 μL IS, and 1.2 mL acetonitrile. The mixture was then vortexed for 5 min, sonicated for 10 min, and then stored at −20°C for 30 min. Subsequently, the mixture was centrifuged at 14,000 rpm for 10 min. The supernatant obtained was then transferred to another tube and evaporated to dryness at 37°C under nitrogen. The dried residue was reconstituted with 200 μL of the 50% methanol–water, and the centrifugation process was repeated. The obtained supernatant was then used for further analysis.
The appropriate amount of the reference substance was accurately weighed and dissolved in an appropriate amount of methanol to obtain stock solutions. The concentrations of the resulting stock solution were 0.9996 mg/mL for baishouwu benzophenone, 0.9518 mg/mL for deacylmetaplexigenin, 1.3660 mg/mL for qingyangshengenin, and 0.9898 mg/mL for syringic acid. Accurate volumes of each stock solution were mixed to obtain working solution, which was then serially diluted with methanol to provide standard working solutions. Similarly, QC samples of three concentrations (low, medium, and high) were prepared. All solutions were stored at −20°C for later use.
The following parameters of stability were assessed: short–term stability (24 h at room temperature), processed sample stability (24 h at 4°C), freeze–thaw stability (3 cycles), and auto–sampler stability (6 h at room temperature). QC samples of different concentrations were used for stability analysis.

[3] = Stability of the four compounds in plasma samples (QC samples); details: n = 5
Description: In a 1.5 mL EP tube, 100 μL of plasma sample was mixed with 10 µL 1% formic acid–water, 10 μL IS (0.2011 μg/mL), and 400 μL acetonitrile. The mixture was then vortexed for 5 min, followed by sonication for 10 min at 40 kHz and centrifugation at 14,000 rpm for 10 min. The supernatant obtained was transferred to another tube and evaporated to dryness under a nitrogen vacuum at 37°C. The residue obtained was reconstituted with 150 μL of the initial mobile phase, and the centrifugation process was repeated. The supernatant thus obtained was then used for further analysis.
Similarly, QC samples of three concentrations (low, medium, and high) were prepared.
The specificity of the method was evaluated by comparing the retention times of analytes and IS in the blank matrix, blank matrix spiked with the four analytes and IS, and the samples after oral administration of CA extract. Calibration curves were constructed by comparing the ratio of peak areas of the four analytes to that of IS versus the concentration of the four analytes. Calibration curves were fitted via linear weighted (1/X ^ 2 ) least–squares regression. The intra–and inter–day precision and accuracy were estimated by analyzing QC samples at different concentrations on the same day and three consecutive validation days, respectively. The extraction recovery was evaluated by determining the peak area of analytes in QC samples compared with that in extracted matrix samples. The relative standard deviation of the extraction recovery of analytes at each level was retained at ≤20.0%. The following parameters of stability were assessed: short–term stability (24 h at room temperature), processed sample stability (24 h at 4°C), freeze–thaw stability (3 cycles), and auto–sampler stability (6 h at room temperature). QC samples of different concentrations were used for stability analysis.

[4] = Tissue distribution study after oral administration of CA extract in normal and FD rats
Description: UPLC–MS/MS analysis was conducted using the ACQUITY UPLC system (Waters Corp., Milford, MA, United States) equipped with a Xevo–TQ mass spectrometer (Waters Corp., Milford, MA, United States) with an electrospray ionization (ESI) interface and triple quadrupole mass analyzer.
The ACQUITY UPLC® BEH C18 column (2.1 mm × 50 mm, 1.7 μm, Waters, United States) was used for separation and was maintained at 40°C. The mobile phase consisted of 0.1% formic acid in water (A) and 0.1% formic acid–acetonitrile (B) for PK study and 0.2% formic acid in water (A) and 0.2% formic acid–acetonitrile (B) for tissue distribution study. The mobile phase was eluted as a gradient, as follows: 0–0.5 min, 10% B; 0.5–3.0 min, 15% B; 3.0–3.2 min, 25% B; 3.2–4.0 min, 30% B; 4.0–4.5 min, 32% B; 4.5–6.0 min, 90% B; and 6.0 min, 10% B. The flow rate was set at 0.35 mL/min and the injection volume was 2 μL for the PK study and 1 μL for the tissue distribution study.
The four active components of CA were quantified using multiple reaction monitoring under negative ion mode. The following m/z transitions were chosen for quantification: baishouwu benzophenone 301.00→283.00, deacylmetaplexigenin 379.15→361.20, qingyangshengenin 499.20→137.00, syringic acid 197.20→181.95, and puerarin (internal standard, IS) 415.10→267.05. The collision energy was 15, 15, 35, 15, and 35 V, respectively ([Sun et al., 2022]). ESI mode was operated under the following conditions: capillary voltage, 1 kV; desolvation gas (N2), 1000 L/h; collision gas (Ar2), 150 L/h; desolvation temperature, 400°C; and source temperature, 120°C.
as §1
SD rats were randomly divided into normal and FD groups (n = 30 each) and orally administered 10 mL/kg of CA extract solution. The rats were sacrificed at 10, 30 min, 1, 2, and 4 h after administration (6 rats per time point). Subsequently, their heart, liver, spleen, lung, kidney, brain, small intestine, and stomach were removed. The tissue samples were then washed in saline solution and wiped with filter paper. Subsequently, all tissues were stored at −80°C until analysis.

[5] = Brain homogenate, highest QC (ng·mL^-1): Baishouwu benzophenone 131.10, Syringic acid 320.04, Qingyangshengenin 62.12, Deacylmetaplexigenin 677.19
[6] = Brain homogenate, lowest QC (ng·mL^-1): Baishouwu benzophenone 3.34, Syringic acid 8.18, Qingyangshengenin 1.58, Deacylmetaplexigenin 17.26
[7] = Brain homogenate, middle QC (ng·mL^-1): Baishouwu benzophenone 20.88, Syringic acid 51.14, Qingyangshengenin 9.90, Deacylmetaplexigenin 107.87
[8] = Heart homogenate, highest QC (ng·mL^-1): Baishouwu benzophenone 111.56, Syringic acid 340.93, Qingyangshengenin 350.76, Deacylmetaplexigenin 1522.88
[9] = Heart homogenate, lowest QC (ng·mL^-1): Baishouwu benzophenone 2.66, Syringic acid 8.11, Qingyangshengenin 8.35, Deacylmetaplexigenin 36.24
[10] = Heart homogenate, middle QC (ng·mL^-1): Baishouwu benzophenone 18.96, Syringic acid 57.96, Qingyangshengenin 59.63, Deacylmetaplexigenin 258.89
[11] = Kidney homogenate, highest QC (ng·mL^-1): Baishouwu benzophenone 768.40, Syringic acid 1230.44, Qingyangshengenin 844.98, Deacylmetaplexigenin 2249.71
[12] = Kidney homogenate, lowest QC (ng·mL^-1): Baishouwu benzophenone 9.84, Syringic acid 15.75, Qingyangshengenin 10.82, Deacylmetaplexigenin 28.80
[13] = Kidney homogenate, middle QC (ng·mL^-1): Baishouwu benzophenone 81.96, Syringic acid 131.25, Qingyangshengenin 90.13, Deacylmetaplexigenin 239.97
[14] = Liver homogenate, highest QC (ng·mL^-1): Baishouwu benzophenone 313.75, Syringic acid 268.07, Qingyangshengenin 4484.13, Deacylmetaplexigenin 3093.35
[15] = Liver homogenate, lowest QC (ng·mL^-1): Baishouwu benzophenone 1.77, Syringic acid 22.34, Qingyangshengenin 25.26, Deacylmetaplexigenin 16.38
[16] = Lung homogenate, highest QC (ng·mL^-1): Baishouwu benzophenone 630.29, Syringic acid 662.80, Qingyangshengenin 385.86, Deacylmetaplexigenin 1513.71
[17] = Lung homogenate, lowest QC (ng·mL^-1): Baishouwu benzophenone 17.66, Syringic acid 18.57, Qingyangshengenin 10.81, Deacylmetaplexigenin 42.42
[18] = Lung homogenate, middle QC (ng·mL^-1): Baishouwu benzophenone 105.98, Syringic acid 111.44, Qingyangshengenin 64.88, Deacylmetaplexigenin 254.52
[19] = Small intestine homogenate, highest QC (ng·mL^-1): Baishouwu benzophenone 39.22, Syringic acid 773.28, Qingyangshengenin 1726.39, Deacylmetaplexigenin 1206.41
[20] = Small intestine homogenate, lowest QC (ng·mL^-1): Baishouwu benzophenone 0.46, Syringic acid 9.31, Qingyangshengenin 20.77, Deacylmetaplexigenin 14.52
[21] = Small intestine homogenate, middle QC (ng·mL^-1): Baishouwu benzophenone 4.97, Syringic acid 97.95, Qingyangshengenin 218.68, Deacylmetaplexigenin 152.81
[22] = Spleen homogenate, highest QC (ng·mL^-1): Baishouwu benzophenone 658.88, Syringic acid 752.66, Qingyangshengenin 418.52, Deacylmetaplexigenin 1979.74
[23] = Spleen homogenate, lowest QC (ng·mL^-1): Baishouwu benzophenone 10.98, Syringic acid 12.54, Qingyangshengenin 6.98, Deacylmetaplexigenin 33.00
[24] = Spleen homogenate, middle QC (ng·mL^-1): Baishouwu benzophenone 87.85, Syringic acid 100.35, Qingyangshengenin 55.80, Deacylmetaplexigenin 263.97
[25] = Stomach homogenate, highest QC (ng·mL^-1): Baishouwu benzophenone 47.06, Syringic acid 257.76, Qingyangshengenin 1285.45, Deacylmetaplexigenin 1665.65
[26] = Stomach homogenate, lowest QC (ng·mL^-1): Baishouwu benzophenone 0.63, Syringic acid 3.44, Qingyangshengenin 17.14, Deacylmetaplexigenin 22.21
[27] = Stomach homogenate, middle QC (ng·mL^-1): Baishouwu benzophenone 6.28, Syringic acid 34.37, Qingyangshengenin 171.39, Deacylmetaplexigenin 222.09
[28] = high QC (nominal 1666.00 / 3172.53 / 569.17 / 206.21 ng·mL^-1)
[29] = low QC (nominal 52.06 / 49.57 / 8.89 / 1.61 ng·mL^-1)
[30] = medium QC (nominal 208.25 / 396.57 / 71.13 / 25.78 ng·mL^-1)

AUC(0-inf) ([1]; FD group rats): 11100 ng·h/mL
AUC(0-t) ([1]; FD group rats): 9820 ± 1300 ng·h/mL
CL/F ([1]; FD group rats): 7.5 mL/min/kg
Cmax ([1]; FD group rats): 5220 ± 440 ng/mL
half-life ([1]; FD group rats): 11 ± 1.85 h
Tmax ([1]; FD group rats): 0.31 ± 0.06 h
Vd/F ([1]; FD group rats): 7.08 ± 1.07 L/kg
AUC(0-inf) ([1]; Normal group rats): 13800 ng·h/mL
AUC(0-t) ([1]; Normal group rats): 12800 ng·h/mL
CL/F ([1]; Normal group rats): 6 mL/min/kg
Cmax ([1]; Normal group rats): 6000 ± 592 ng/mL
half-life ([1]; Normal group rats): 9.14 ± 2.41 h
Tmax ([1]; Normal group rats): 0.26 ± 0.03 h
Vd/F ([1]; Normal group rats): 4.67 ± 0.88 L/kg
Auto-sampler for 6 h Measured concentration [2, 5]: 120.63 ± 2.55 ng/mL
Three freeze-thaw cycles Measured concentration [2, 5]: 123.76 ± 3.01 ng/mL
Auto-sampler for 6 h Measured concentration [2, 6]: 3.08 ± 0.01 ng/mL
Three freeze-thaw cycles Measured concentration [2, 6]: 3.02 ± 0.04 ng/mL
Auto-sampler for 6 h Measured concentration [2, 7]: 19.76 ± 0.44 ng/mL
Three freeze-thaw cycles Measured concentration [2, 7]: 20.10 ± 0.34 ng/mL
Auto-sampler for 6 h Measured concentration [2, 8]: 117.44 ± 1.18 ng/mL
Three freeze-thaw cycles Measured concentration [2, 8]: 118.10 ± 1.89 ng/mL
Auto-sampler for 6 h Measured concentration [2, 9]: 2.59 ± 0.05 ng/mL
Three freeze-thaw cycles Measured concentration [2, 9]: 2.47 ± 0.03 ng/mL
Auto-sampler for 6 h Measured concentration [2, 10]: 19.82 ± 0.45 ng/mL
Three freeze-thaw cycles Measured concentration [2, 10]: 19.77 ± 0.41 ng/mL
Auto-sampler for 6 h Measured concentration [2, 11]: 750.99 ± 14.44 ng/mL
Three freeze-thaw cycles Measured concentration [2, 11]: 748.36 ± 12.9 ng/mL
Auto-sampler for 6 h Measured concentration [2, 12]: 9.74 ± 0.44 ng/mL
Three freeze-thaw cycles Measured concentration [2, 12]: 9.58 ± 0.63 ng/mL
Auto-sampler for 6 h Measured concentration [2, 13]: 88.88 ± 5.31 ng/mL
Three freeze-thaw cycles Measured concentration [2, 13]: 87.75 ± 5.24 ng/mL
Auto-sampler for 6 h Measured concentration [2, 14]: 305.22 ± 17.58 ng/mL
Three freeze-thaw cycles Measured concentration [2, 14]: 303.56 ± 16.64 ng/mL
Auto-sampler for 6 h Measured concentration [2, 15]: 1.80 ± 0.19 ng/mL
Three freeze-thaw cycles Measured concentration [2, 15]: 1.86 ± 0.05 ng/mL
Three freeze-thaw cycles Measured concentration ([2]; Liver homogenate, middle QC (ng·mL^-1): Baishouwu benzophenone 27.19, Syringic acid 89.35, Qingyangshengenin 386.62, Deacylmetaplexigenin 268.09): 26.80 ± 1.81 ng/mL
Auto-sampler for 6 h Measured concentration [2, 16]: 717.67 ± 14.53 ng/mL
Three freeze-thaw cycles Measured concentration [2, 16]: 716.31 ± 12.93 ng/mL
Auto-sampler for 6 h Measured concentration [2, 17]: 17.71 ± 1.84 ng/mL
Three freeze-thaw cycles Measured concentration [2, 17]: 17.55 ± 2.16 ng/mL
Auto-sampler for 6 h Measured concentration [2, 18]: 107.37 ± 5.82 ng/mL
Three freeze-thaw cycles Measured concentration [2, 18]: 105.63 ± 6.43 ng/mL
Auto-sampler for 6 h Measured concentration [2, 19]: 38.84 ± 3.48 ng/mL
Three freeze-thaw cycles Measured concentration [2, 19]: 38.30 ± 3.03 ng/mL
Auto-sampler for 6 h Measured concentration [2, 20]: 0.48 ± 0.05 ng/mL
Three freeze-thaw cycles Measured concentration [2, 20]: 0.46 ± 0.04 ng/mL
Auto-sampler for 6 h Measured concentration [2, 21]: 4.71 ± 0.14 ng/mL
Three freeze-thaw cycles Measured concentration [2, 21]: 4.66 ± 0.10 ng/mL
Auto-sampler for 6 h Measured concentration [2, 22]: 684.55 ± 31.57 ng/mL
Three freeze-thaw cycles Measured concentration [2, 22]: 677.57 ± 32.24 ng/mL
Auto-sampler for 6 h Measured concentration [2, 23]: 11.24 ± 0.63 ng/mL
Three freeze-thaw cycles Measured concentration [2, 23]: 11.40 ± 0.76 ng/mL
Auto-sampler for 6 h Measured concentration [2, 24]: 80.95 ± 2.54 ng/mL
Three freeze-thaw cycles Measured concentration [2, 24]: 79.35 ± 1.81 ng/mL
Auto-sampler for 6 h Measured concentration [2, 25]: 43.94 ± 1.72 ng/mL
Three freeze-thaw cycles Measured concentration [2, 25]: 44.41 ± 1.38 ng/mL
Auto-sampler for 6 h Measured concentration [2, 26]: 0.57 ± 0.05 ng/mL
Three freeze-thaw cycles Measured concentration [2, 26]: 0.58 ± 0.07 ng/mL
Auto-sampler for 6 h Measured concentration [2, 27]: 6.13 ± 0.11 ng/mL
Three freeze-thaw cycles Measured concentration [2, 27]: 6.22 ± 0.15 ng/mL
Measured concentration, 4°C for 24 h [3, 28]: 1594.23 ± 107.31 ng/mL
Measured concentration, Room temperature for 24 h [3, 28]: 1664.66 ± 169.47 ng/mL
Measured concentration, Three freeze-thaw cycles [3, 28]: 1684.19 ± 146.38 ng/mL
Measured concentration, 4°C for 24 h [3, 29]: 55.65 ± 4.01 ng/mL
Measured concentration, Three freeze-thaw cycles [3, 29]: 56.07 ± 5.75 ng/mL
Measured concentration, Room temperature for 24 h ([3]; low QC (nominal 52.06 / 49.57 / 8.89 / 1.61 ng·mL^-1 for baishouwu benzophenone / deacylmetaplexigenin / qingyangshengenin / syringic acid)): 55.67 ± 5.93 ng/mL
Measured concentration, 4°C for 24 h [3, 30]: 221.19 ± 11.60 ng/mL
Measured concentration, Room temperature for 24 h [3, 30]: 222.20 ± 17.55 ng/mL
Measured concentration, Three freeze-thaw cycles [3, 30]: 221.08 ± 17.98 ng/mL
tissue with the highest concentration ([4]; FD group): lungs
crossing of the blood-brain barrier ([4]; distribution found in rat brain): could cross the blood-brain barrier
time after oral administration at which almost completely metabolized in tissues ([4]; rat tissues): 4 h
time of peak in most of organ tissues ([4]; rat tissues): 0.17 to 0.5 h
SMILES: CC(=O)c1ccc(O)c(C(=O)c2c(O)ccc(O)c2C)c1O [Baishouwu benzophenone]
